In ChEMBL document CHEMBL3763148, “Synthesis, structure elucidation, DNA-PK and PI3K and anti-cancer activity of 8- and 6-aryl-substituted-1-3-benzoxazines” (Eur J Med Chem, 2016):
pIC50: −log10 of the molar value.

Tests used:
[1] = target: Phosphatidylinositol 4,5-bisphosphate 3-kinase catalytic subunit gamma isoform (Homo sapiens) (UniProt P48736); experiment: Inhibition of PI3Kgamma (unknown origin) at 10 uM incubated for 60 mins by kinase-glo luminescence assay
[2] = target: T1, Phosphatidylinositol 4,5-bisphosphate 3-kinase catalytic subunit delta isoform (Homo sapiens, UniProt O00329); experiment: Inhibition of PI3Kdelta (unknown origin) incubated for 60 mins by kinase-glo luminescence assay
T1 sequence (O00329 whole entry): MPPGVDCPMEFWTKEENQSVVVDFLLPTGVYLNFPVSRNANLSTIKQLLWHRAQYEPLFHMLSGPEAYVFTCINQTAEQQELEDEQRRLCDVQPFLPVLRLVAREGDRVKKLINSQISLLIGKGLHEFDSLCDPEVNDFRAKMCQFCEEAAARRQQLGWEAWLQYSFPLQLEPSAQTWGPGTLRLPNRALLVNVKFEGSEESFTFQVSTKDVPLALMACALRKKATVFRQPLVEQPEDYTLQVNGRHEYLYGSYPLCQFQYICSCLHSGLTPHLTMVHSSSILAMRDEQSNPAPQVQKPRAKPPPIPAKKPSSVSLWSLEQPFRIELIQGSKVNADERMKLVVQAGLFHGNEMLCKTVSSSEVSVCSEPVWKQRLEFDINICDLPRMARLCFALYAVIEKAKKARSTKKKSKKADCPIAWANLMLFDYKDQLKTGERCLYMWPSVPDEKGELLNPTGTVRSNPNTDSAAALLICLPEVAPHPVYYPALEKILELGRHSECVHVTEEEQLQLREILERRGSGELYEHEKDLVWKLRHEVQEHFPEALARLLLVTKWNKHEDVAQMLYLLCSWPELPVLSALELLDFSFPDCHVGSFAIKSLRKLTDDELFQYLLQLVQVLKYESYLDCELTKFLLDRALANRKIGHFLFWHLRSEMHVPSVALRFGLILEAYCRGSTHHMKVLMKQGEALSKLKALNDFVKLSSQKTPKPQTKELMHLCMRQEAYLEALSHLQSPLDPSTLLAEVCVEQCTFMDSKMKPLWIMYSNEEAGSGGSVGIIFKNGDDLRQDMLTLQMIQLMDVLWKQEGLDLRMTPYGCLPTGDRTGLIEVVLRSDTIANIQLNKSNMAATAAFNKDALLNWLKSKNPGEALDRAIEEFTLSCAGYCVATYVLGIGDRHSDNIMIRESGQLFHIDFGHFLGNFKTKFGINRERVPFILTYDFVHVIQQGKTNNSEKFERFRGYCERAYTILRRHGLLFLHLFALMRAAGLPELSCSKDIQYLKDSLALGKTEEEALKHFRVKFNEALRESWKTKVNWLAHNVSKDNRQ

[3] = target: DNA-dependent protein kinase catalytic subunit (Homo sapiens, UniProt P78527); experiment: Inhibition of human DNA-PK using EPPLSQEAFADLWKK as substrate by HTRF assay
K562 = experiment: Cytotoxicity against human K562 cells assessed as cell growth inhibition at 10 uM after 48 hrs by SRB assay relative to control; assay type: functional; conditions: K562, 48 h, read-out: GI
SR = experiment: Cytotoxicity against human SR cells assessed as cell growth inhibition at 10 uM after 48 hrs by SRB assay relative to control; assay type: functional; conditions: read-out: GI
[4] = Cytotoxicity against human HCT116 cells assessed as cell growth inhibition at 10 uM after 48 hrs by SRB assay relative to control; assay type: functional; conditions: HCT-116, 48 h, read-out: GI
[5] = Cytotoxicity against human SW620 cells assessed as cell growth inhibition at 10 uM after 48 hrs by SRB assay relative to control; assay type: functional; conditions: SW-620, 48 h, read-out: GI
[6] = Cytotoxicity against human SF295 cells assessed as cell growth inhibition at 10 uM after 48 hrs by SRB assay relative to control; assay type: functional; conditions: SF-295, 48 h, read-out: GI
[7] = Cytotoxicity against human SF539 cells assessed as cell growth inhibition at 10 uM after 48 hrs by SRB assay relative to control; assay type: functional; conditions: SF-539, 48 h, read-out: GI
[8] = Cytotoxicity against human SNB19 cells assessed as cell growth inhibition at 10 uM after 48 hrs by SRB assay relative to control; assay type: functional; conditions: SNB-19, 48 h, read-out: GI
[9] = Cytotoxicity against human SNB75 cells assessed as cell growth inhibition at 10 uM after 48 hrs by SRB assay relative to control; assay type: functional; conditions: SNB-75, 48 h, read-out: GI
U-251 = experiment: Cytotoxicity against human U251 cells assessed as cell growth inhibition at 10 uM after 48 hrs by SRB assay relative to control; assay type: functional; conditions: U-251, 48 h, read-out: GI
[10] = Cytotoxicity against human LOXIMVI cells assessed as cell growth inhibition at 10 uM after 48 hrs by SRB assay relative to control; assay type: functional; conditions: LOX IMVI, read-out: GI
MDA-MB-435 = experiment: Cytotoxicity against human MDA-MB-435 cells assessed as cell growth inhibition at 10 uM after 48 hrs by SRB assay relative to control; assay type: functional; conditions: MDA-MB-435, 48 h, read-out: GI
[11] = Cytotoxicity against human UACC62 cells assessed as cell growth inhibition at 10 uM after 48 hrs by SRB assay relative to control; assay type: functional; conditions: UACC-62, 48 h, read-out: GI
[12] = Cytotoxicity against human OVCAR4 cells assessed as cell growth inhibition at 10 uM after 48 hrs by SRB assay relative to control; assay type: functional; conditions: OVCAR-4, 48 h, read-out: GI
[13] = Cytotoxicity against human NCI-ADR-RES cells assessed as cell growth inhibition at 10 uM after 48 hrs by SRB assay relative to control; assay type: functional; conditions: read-out: GI
ACHN = experiment: Cytotoxicity against human ACHN cells assessed as cell growth inhibition at 10 uM after 48 hrs by SRB assay relative to control; assay type: functional; conditions: read-out: GI
SN12C = experiment: Cytotoxicity against human SN12C cells assessed as cell growth inhibition at 10 uM after 48 hrs by SRB assay relative to control; assay type: functional; conditions: read-out: GI
[14] = Cytotoxicity against human UO31 cells assessed as cell growth inhibition at 10 uM after 48 hrs by SRB assay relative to control; assay type: functional; conditions: UO-31, 48 h, read-out: GI
[15] = Cytotoxicity against human DU145 cells assessed as cell growth inhibition at 10 uM after 48 hrs by SRB assay relative to control; assay type: functional; conditions: DU-145, 48 h, read-out: GI
MDA-MB-231 = experiment: Cytotoxicity against human MDA-MB-231 cells assessed as cell growth inhibition at 10 uM after 48 hrs by SRB assay relative to control; assay type: functional; conditions: MDA-MB-231, 48 h, read-out: GI
[16] = Cytotoxicity against human BT549 cells assessed as cell growth inhibition at 10 uM after 48 hrs by SRB assay relative to control; assay type: functional; conditions: BT-549, 48 h, read-out: GI
T47D = experiment: Cytotoxicity against human T47D cells assessed as cell growth inhibition at 10 uM after 48 hrs by SRB assay relative to control; assay type: functional; conditions: read-out: GI
MDA-MB-468 = experiment: Cytotoxicity against human MDA-MB-468 cells assessed as cell growth inhibition at 10 uM after 48 hrs by SRB assay relative to control; assay type: functional; conditions: MDA-MB-468, 48 h, read-out: GI

Sequence of Phosphatidylinositol 4,5-bisphosphate 3-kinase catalytic subunit gamma isoform (Homo sapiens) (P48736 whole entry, looked up, canonical isoform): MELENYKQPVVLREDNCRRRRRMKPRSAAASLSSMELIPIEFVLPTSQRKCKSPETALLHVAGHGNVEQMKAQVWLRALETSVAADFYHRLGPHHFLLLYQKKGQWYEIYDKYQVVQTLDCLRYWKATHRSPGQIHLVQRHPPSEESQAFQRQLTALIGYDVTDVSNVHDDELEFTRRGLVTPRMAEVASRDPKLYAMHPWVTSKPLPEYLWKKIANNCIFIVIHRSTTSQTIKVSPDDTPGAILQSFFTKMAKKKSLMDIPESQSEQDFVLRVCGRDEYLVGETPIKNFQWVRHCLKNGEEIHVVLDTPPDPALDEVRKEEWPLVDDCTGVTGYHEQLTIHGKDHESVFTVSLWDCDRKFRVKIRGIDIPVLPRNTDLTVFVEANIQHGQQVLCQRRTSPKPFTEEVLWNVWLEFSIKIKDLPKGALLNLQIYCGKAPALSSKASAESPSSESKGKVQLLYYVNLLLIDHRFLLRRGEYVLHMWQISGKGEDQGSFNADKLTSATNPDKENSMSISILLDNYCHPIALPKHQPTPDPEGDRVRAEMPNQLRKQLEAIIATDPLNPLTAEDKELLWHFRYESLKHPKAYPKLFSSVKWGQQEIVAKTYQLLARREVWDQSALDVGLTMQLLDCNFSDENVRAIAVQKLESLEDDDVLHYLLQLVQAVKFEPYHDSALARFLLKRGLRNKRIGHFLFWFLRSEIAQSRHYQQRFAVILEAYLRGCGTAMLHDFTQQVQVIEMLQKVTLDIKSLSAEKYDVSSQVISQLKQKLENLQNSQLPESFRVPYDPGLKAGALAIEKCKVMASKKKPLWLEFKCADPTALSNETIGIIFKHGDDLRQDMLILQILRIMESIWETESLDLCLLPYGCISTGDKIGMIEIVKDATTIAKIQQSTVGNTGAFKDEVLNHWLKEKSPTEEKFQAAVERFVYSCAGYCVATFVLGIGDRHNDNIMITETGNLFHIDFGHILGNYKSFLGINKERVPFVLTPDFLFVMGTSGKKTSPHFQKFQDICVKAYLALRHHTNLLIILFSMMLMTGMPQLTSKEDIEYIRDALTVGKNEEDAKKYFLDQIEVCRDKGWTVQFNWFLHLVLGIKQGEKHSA

SMILES	inhibition [1]	pIC50 [2]	pIC50 [3]	inhibition of growth at 10 µM (K562)	inhibition of growth at 10 µM (SR)	inhibition of growth at 10 µM [4]	inhibition of growth at 10 µM [5]	inhibition of growth at 10 µM [6]	inhibition of growth at 10 µM [7]	inhibition of growth at 10 µM [8]	inhibition of growth at 10 µM [9]	inhibition of growth at 10 µM (U-251)	inhibition of growth at 10 µM [10]	inhibition of growth at 10 µM (MDA-MB-435)	inhibition of growth at 10 µM [11]	inhibition of growth at 10 µM [12]	inhibition of growth at 10 µM [13]	inhibition of growth at 10 µM (ACHN)	inhibition of growth at 10 µM (SN12C)	inhibition of growth at 10 µM [14]	further results
O=c1nc(N2CCOCC2)oc2c(-c3cccc4c3oc3ccccc34)cccc12	32%	4.92	6.57	19.4%	34.7%	6.54%	0.96%	0.3%	3.81%	4.3%	41.5%	7.66%	39.2%	17.1%	37.4%	-1.43%	12.8%	6.98%	5.07%	40.1%	inhibition of growth at 10 µM [15]: 1.77%; inhibition of growth at 10 µM (MDA-MB-231): 18%; inhibition of growth at 10 µM [16]: 2.25%; inhibition of growth at 10 µM (T47D): 15.1%; inhibition of growth at 10 µM (MDA-MB-468): 18.7%
COc1ccc(-c2cccc3c(=O)nc(N4CCOCC4)oc23)cc1	7%	5.57	5.00	7.02%	26.1%	7.05%	0.87%	2.78%	-2.27%	-0.25%	38.2%	0.83%	13%	1.03%	19.3%	2.85%	9.12%	6.19%	8.75%	17.4%	inhibition of growth at 10 µM [15]: 1.58%; inhibition of growth at 10 µM (MDA-MB-231): 3.13%; inhibition of growth at 10 µM [16]: 4.99%; inhibition of growth at 10 µM (T47D): 38.5%; inhibition of growth at 10 µM (MDA-MB-468): 6.21%
NC(=O)c1ccc(-c2cccc3c(=O)nc(N4CCOCC4)oc23)cc1	10%	< 5.00	5.06	-10.4%	8.01%	-3.97%	-3.57%	6.07%	-1.74%	0.88%	25.5%	2.31%	8.86%	-6.9%	7.72%	9.54%	2.66%	-0.43%	-3.74%	10.8%	inhibition of growth at 10 µM [15]: -3.19%; inhibition of growth at 10 µM (MDA-MB-231): 8.08%; inhibition of growth at 10 µM [16]: 1.94%; inhibition of growth at 10 µM (T47D): 12.2%; inhibition of growth at 10 µM (MDA-MB-468): -5.19%
O=c1nc(N2CCOCC2)oc2c(-c3cccc4ccccc34)cccc12	29%	6.19	4.69	9.87%	27.1%	3.34%	2.12%	10.8%	15%	8.18%	53.1%	14.2%	19.9%	-1.44%	45.6%	2.95%	16.3%	18.4%	17.7%	46.6%	inhibition of growth at 10 µM [15]: 2.34%; inhibition of growth at 10 µM (MDA-MB-231): 6.52%; inhibition of growth at 10 µM [16]: 14.7%; inhibition of growth at 10 µM (T47D): 20.3%; inhibition of growth at 10 µM (MDA-MB-468): 23.5%
